Tested on: IPOHE (Ipomoea hederacea)
Experiment: Post-emergence action against IPOHE
Assay type: in vivo
Description: The herbicidal activity of the active substances or active substance mixtures was evaluated visually from the treated variants in comparison with untreated control variants. In this connection, damage to and development of all plant parts above ground was included. The evaluation was carried out according to a percentage scale (100% action=all plants dead; 50% action=50% of the plants and green plant parts dead; 0% action=no recognizable action=as untreated control plot).
Seeds or root pieces of mono- and dicotyledonous weeds are placed in sandy clay soil in pots, covered with earth and secured in a greenhouse under good growing conditions (temperature, air humidity, water supply). Approximately three weeks after sowing, the test plants are treated with the compositions according to the invention. The compositions according to the invention formulated as wettable powders or as emulsion concentrates are sprayed, in spray application, on to the green plant parts in different dosages with a water application rate of 600 to 800 l/ha (corrected). Immediately up to a few days after application, the test receptacles accumulate water over the ground surface by up to 30 mm. With the water application (submerged application), on the other hand, the ground in the closed test receptacle is already covered with the paddy water up to 30 mm at the time of the application. The formulated active substances are here added directly to the paddy water. After an exposure time of the test plants in the greenhouse of an additional 3 to 4 weeks under optimum growing conditions, the effect of the preparations is evaluated visually in comparison with untreated controls. […] In this connection, actions of the combinations according to the invention which exceed the formal sum of the actions of the herbicides when applied individually are frequently observed. The values observed for the tests show, with suitable low dosages, an action of the combinations which lies above the expected values according to Colby.
If the observed activity values already exceed the formal sum of the values for the tests with individual applications, then they likewise exceed the expected value according to Colby, which is calculated according to the following formula and is likewise regarded as an indication of synergy (cf. S. R. Colby in Weeds, 15 (1967), pp. 20 to 22):
In this connection: • A, B=action of the component A or B in percent at a dosage of a or b grams ai/ha. • E=expected value in % at a dosage of a+b grams ai/ha.
The abbreviation IPOHE is the harmful plant Ipomoea hederacea.

[1] = dosage 50 g/ha, visual rating vs untreated control

For `Cn1nc(C(F)(F)F)c(CS(=O)(=O)C2=NOC(C)(C)C2)c1OC(F)F` [B18, pyroxasulfone], the “Action against IPOHE” value (dosage 75 g/ha) was 15%.

`C[C@@H](Oc1ccc(Oc2nc3ccc(Cl)cc3o2)cc1)C(=O)N(C)c1ccccc1F` [B10, metamifop] was tested, and the “Action against IPOHE” value (dosage 75 g/ha) was 15%.

With `COc1cc(OC)nc(NC(=O)NS(=O)(=O)Nc2ccccc2C(=O)N(C)C)n1` [B11, orthosulfamuron] the “Action against IPOHE” value (dosage 30 g/ha) was 40%.

For `CC(C)N(C)S(=O)(=O)NC(=O)c1cc(-n2c(=O)cc(C(F)(F)F)n(C)c2=O)c(F)cc1Cl` [B20, saflufenacil], the “Action against IPOHE” value (dosage 10 g/ha) was 45%.

`C#CCN(C)c1c(C#N)cnn1-c1nn2c(c1Cl)CCCC2` [B15, pyraclonil] was tested, and the “Action against IPOHE” value (dosage 75 g/ha) was 30%.

`CS(=O)(=O)c1ccc(C(=O)C2C(=O)CCCC2=O)c(Cl)c1COCC(F)(F)F` [tembotrione] was tested, and the “Action against IPOHE” value [1] was 40%.

`COCC(=O)OC(c1ncccc1S(=O)(=O)NC(=O)Nc1nc(OC)cc(OC)n1)C(C)F` (centres unmarked) [B8, flucetosulfuron] was tested, and the “Action against IPOHE” value [1] was 20%.

With `COc1cc(OC)nc(NC(=O)NS(=O)(=O)c2c(C3=NOCC(C)O3)c(Cl)nn2C)n1` (centres unmarked) [B21, 3-chloro-N-[(4,6-dimethoxypyrimidin-2-yl)carbamoyl]-1-methyl-4-(5-methyl-5,6-dihydro-1,4,2-dioxazin-3-yl)-1H-pyrazole-5-sulfonamide] the “Action against IPOHE” value [1] was 15%.

`Cc1nn(C)c(O)c1C(=O)c1ccc(C(F)(F)F)cc1S(C)(=O)=O` [B16, pyrasulfotole] was tested, and the “Action against IPOHE” value (dosage 25 g/ha) was 50%.

In the case of `Nc1nc(C2CC2)nc(C(=O)[O-])c1Cl.[K+]` [B4, aminocyclopyrachlor], the “Action against IPOHE” value [1] is reported as 35%.

`COc1cnc(OC)n2nc(NS(=O)(=O)c3c(OCC(F)F)cccc3C(F)(F)F)nc12` [B12, penoxsulam] was tested, and the “Action against IPOHE” value (dosage 15 g/ha) was 20%.

For `COc1cc(OC)nc(NC(=O)NS(=O)(=O)Nc2ccccc2C(=O)C2CC2)n1` [B6, cyclosulfamuron], the “Action against IPOHE” value [1] was 20%.

For `COCc1cccc(C(O)c2nc(OC)cc(OC)n2)c1NS(=O)(=O)C(F)F` (centres unmarked) [B17, pyrimisulfan], the “Action against IPOHE” value [1] was 20%.

For `CC(C)c1nn(C(=O)NC(C)(C)C)c(=O)n1N` [B1, amicarbazone], the “Action against IPOHE” value (dosage 125 g/ha) was 20%.

For `Cc1ccc2c(c1)[C@H](Nc1nc(N)nc(C(C)F)n1)[C@@H](C)C2` (some centres unmarked) [B7, indaziflam], the “Action against IPOHE” value (dosage 25 g/ha) was 25%.

For `CCCc1ccc2nc(Cl)c(S(=O)(=O)NC(=O)Nc3nc(OC)cc(OC)n3)n2n1` [B14, propyrisulfuron], the “Action against IPOHE” value [1] was 30%.

With `CC(C)N(C(=O)n1cnn(-c2ccc(Cl)cc2Cl)c1=O)c1ccc(F)cc1F` [B9, ipfencarbazone] the “Action against IPOHE” value [1] was 25%.

`COc1cc(OC)n2nc(NS(=O)(=O)c3c(C(F)(F)F)ccnc3OC)nc2n1` [B19, pyroxsulam] was tested, and the “Action against IPOHE” value (dosage 15 g/ha) was 20%.

With `CCc1cc(C)cc(CC)c1-c1c(OC(=O)C(C)(C)C)n2n(c1=O)CCOCC2` [B13, pinoxaden] the “Action against IPOHE” value (dosage 30 g/ha) was 15%.

For `Nc1cc(Cl)nc(C(=O)O)c1Cl` [B2, aminopyralid], the “Action against IPOHE” value (dosage 75 g/ha) was 30%.

From patent publication US8492313B2, “Synergistic herbicidal combinations comprising tembotrione” (Bayer Cropscience AG, priority 2009, dated 2013)
